Blank lines part the entries; values can stand above or below the compound they belong to.
How the values were obtained:
[1] = target: SLC41A1-related Na+/Mg2+ exchanger (Homo sapiens, UniProt Q8IVJ1); experiment: Modulators of SLC41A1-related Na+/Mg2+ exchanger activity (Table 3); assay type: cell-based; conditions: at the dosage given, where given;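 also: listed substances are classed by whether they raise or lower SLC41A1-related Na+/Mg2+ exchanger activity, acting directly on the protein or through cellular signalling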
Sequence of SLC41A1-related Na+/Mg2+ exchanger (Q8IVJ1 whole entry): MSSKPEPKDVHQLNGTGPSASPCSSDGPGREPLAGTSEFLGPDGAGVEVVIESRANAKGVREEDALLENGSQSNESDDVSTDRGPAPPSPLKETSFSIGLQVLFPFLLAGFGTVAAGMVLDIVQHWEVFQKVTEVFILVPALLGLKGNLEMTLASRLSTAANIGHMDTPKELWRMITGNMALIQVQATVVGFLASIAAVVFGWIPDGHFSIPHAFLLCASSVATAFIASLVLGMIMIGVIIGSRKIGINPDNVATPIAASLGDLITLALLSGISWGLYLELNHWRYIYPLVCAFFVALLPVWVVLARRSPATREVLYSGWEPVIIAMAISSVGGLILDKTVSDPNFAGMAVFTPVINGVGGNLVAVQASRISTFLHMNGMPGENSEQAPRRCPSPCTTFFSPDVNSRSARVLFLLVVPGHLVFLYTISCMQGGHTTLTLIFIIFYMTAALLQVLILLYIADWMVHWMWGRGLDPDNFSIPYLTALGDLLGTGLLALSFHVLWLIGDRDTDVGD

[2] = test system: HEK293-(SLC41A1) cells; experiment: Proliferation (cell index) of HEK293-(SLC41A1) cells; conditions: imipramine 250 μM, dB-cAMP 100 μM, added 24 hours after seeding; compared to controls
[3] = target: hSLC41A1 (Homo sapiens, UniProt Q8IVJ1); experiment: Mg2+ efflux ([Mg2+]i decrease over 20 min) by mag-fura 2 FF-spectrofluorometry in +tet HEK293-(SLC41A1) cells; conditions: for Mg2+ efflux: Mg2+-free medium, [Na+]e 145 mM; for Effect on SLC41A1-mediated Mg2+ efflux (in words): summary statement
Sequence of hSLC41A1 (Q8IVJ1 whole entry): as above
Method: Loading of cells with 7.5 μmol.l^−1 mag-fura 2 AM (Molecular Probes, Eugene, Oreg. USA) was performed for 30 minutes at 37° C. in the presence of loading facilitator Pluronic F-127 (Molecular probes). After being washed in CMF-HBS+, cells were incubated for a further 30 minutes at 37° C. to allow for complete de-esterification of the fluorescence probe, washed twice in CMF-HBS+ to remove extracellular mag-fura 2 and stored in CMF-HBS supplemented with 10 mmol.l^−1 HEPES, 5 mmol.l^−1 glucose and 0.4 mmol.l^−1 Mg^2+ until being Mg^2+-loaded before measurements of the Mg^2+ efflux capacity. The latter was determined as the intracellular Mg^2+ concentration ([Mg^2+]i) decrease over a 20-min period. Directly before the efflux experiments, −tet and +tet HEK293-(SLC41A1) were Mg-loaded by a 20-min incubation in CMF-HBS+ containing 0, 2, 5 or 10 mmol.l^−1 Mg. […] After loading, the remaining extracellular Mg^2+ was removed by washing the cells twice in CMF-HBS+ and, after re-suspending the cells in CMF-HBS+, measurements were started. To determine the influence of varying extracellular [Na^+], measuring solutions were prepared by diluting the CMF-HBS+ containing 145 mM Na^+ with appropriate volumes of a completely Na^+- and Mg^2+-free PBS. To investigate the effect of HCO3^− on Mg^2+ efflux, completely Ca^2+- and Mg^2+-free medium 199 completed with 10 mmol.l^−1 HEPES and 1.36 mmol.l^−1 L-glutamine (CMF-M199+) with Hank's (0.35 g/l NaHCO3) or Earl's (2.2 g/l NaHCO3) salts were used during Mg-loading and measurements. To ensure a stable pH value, the high-HCO3^− media were pre-equilibrated with 95% air-5% CO2.
Measurements were made at 37° C. in 3 ml cuvettes containing 2 ml cell suspension (CMF-HBS+ or CMF-M199+ with a cytocrit of 10%) under stirring. [Mg^2+]i was determined by measuring the fluorescence of the probe-loaded cells in a spectrofluorometer (LS50-B, PerkinElmer Life Science, Wellesley, Mass. USA) by using the fast filter accessory, which allowed fluorescence to be measured at 20-ms intervals with excitation at 340 and 380 nm, and emission at 515 nm. [Mg^2+]i values were calculated from the 340/380-nm ratio according to the formula of Grynkiewicz et al. (1981) by using the software FL WinLab version 4.0 (PerkinElmer Life Science). A dissociation constant of 1.5 mmol.l^−1 for the mag-fura 2/Mg^2+ complex was used for calculations; minimum (Rmin) and maximum (Rmax) ratios were determined at the end of each experiment by using digitonin. Rmax was found by the addition of 25 mmol.l^−1 MgCl2 in the absence of Ca^2+, whereas Rmin was obtained by addition of 50 mmol.l^−1 EDTA, pH 7.2, to remove all Mg^2+ from the solution. For data evaluation, 10-second data sets each were averaged at the beginning of the measurement and then always after 50 seconds. The final [Mg^2+]i was determined as the mean [Mg^2+]i of the last 10 seconds of the measurement. Thus, for the calculation of any given [Mg^2+]i, 500 data points were used. If not otherwise stated, data are presented as means±standard error (SE).

- Effect on Na+/Mg2+ exchanger [1]: Inhibition
Compound: CS(=O)(=O)O.N=C(N)SCCc1ccc(OCc2ccc([N+](=O)[O-])cc2)cc1 [KB-R7943, 2-(2-(4-(4-nitrobenzyloxy)-phenyl)ethyl)isothiourea methanesulfonate]

- Effect on Na+/Mg2+ exchanger [1]: inhibition
Compound: CNC(=N)NCCC[C@H](N)C(=O)O [L-NMMA, NG-monomethyl-L-arginine]

- Effect on Na+/Mg2+ exchanger [1]: activation
Compound: COCC(/C(C)=C/C(=N\O)C(N)=O)[N+](=O)[O-] (stereo not shown) [NOR1, (E)-4-methyl-2-[(E)-hydoxyimino]-5-nitro-6-methoxy-3-hexenamide]

- Effect on Na+/Mg2+ exchanger [1]: Inhibition
Compound: COC(=O)C1=C(C)NC(C)=C(C(=O)OC)C1c1ccccc1[N+](=O)[O-] [Nifedipine, 3,5-dimethyl 2,6-dimethyl-4-(2-nitrophenyl)-1,4-di-hydropyridine-3,5-di-carboxylate]

- Effect on Na+/Mg2+ exchanger [1]: activation
Compound: CCCCC[C@H](O)/C=C/[C@H]1[C@H](O)CC(=O)[C@@H]1C/C=C\CCCC(=O)O [PGE2, (Z)-7-[(1R,2R,3R)-3-hydroxy-2-[(E,3S)-3-hydroxyoct-1-enyl]-5-oxocyclopentyl]hept-5-enoic acid]

- Mg2+ efflux ([3]; 100 μM quinidin, Mg2+-loaded (10 mM) +tet HEK293-(SLC41A1) cells, without inhibitor 327±71): 176±0.5 μM/20 min
- Effect on SLC41A1-mediated Mg2+ efflux (in words) [3]: strongly decrease
- Effect on Na+/Mg2+ exchanger [1]: Inhibition
Compound: C=CC1CN2CCC1CC2C(O)c1ccnc2ccc(OC)cc12 (stereo not shown) [Quinidin, (2-ethenyl-4-azabicyclo [2.2.2]oct-5-yl)-(6-methoxyquinolin-4-yl)-methanol]

- Effect on Na+/Mg2+ exchanger [1]: Inhibition
Compound: CCOc1ccc(Oc2ccc(OCc3cc(F)ccc3F)cc2)c(N)c1 [SEA0400, 2-[4-[(2,5-difluoro-phenyl)methoxy]phenoxy]-5-ethoxyaniline]

- Effect on Na+/Mg2+ exchanger [1]: inhibition
Compound: NCCS(=O)(=O)O [Taurine, 2-aminoethanesulfonic acid]

- increase of SLC41A1-related Mg2+ efflux ([3]; dB-cAMP 100 μM, loading in 0 mM-Mg2+ solution, +tet cells): 36%
- increase of SLC41A1-related Mg2+ efflux ([3]; dB-cAMP 100 μM, loading in 2 mM-Mg2+ solution, +tet cells): 13%
- decrease of SLC41A1-related Mg2+ efflux ([3]; dB-cAMP 100 μM, loading in 10 mM-Mg2+ solution, +tet cells): 17%
- Effect on SLC41A1-mediated Mg2+ efflux (in words) [3]: stimulated
- Effect on Na+/Mg2+ exchanger [1]: activation
Compound: CCCC(=O)Nc1ncnc2c1ncn2[C@@H]1O[C@@H]2COP(=O)(O)O[C@H]2[C@H]1OC(=O)CCC [dibutyryl-cAMP]
- Effect on proliferation of SLC41A1-overexpressing cells (in words) [2]: stimulation of their proliferation

- Effect on Na+/Mg2+ exchanger [1]: activation
Compound: CC(C)NCC(O)c1ccc(O)c(O)c1 (stereo not shown) [isoproterenol]

- Effect on Na+/Mg2+ exchanger [1]: inhibition
Compound: C[C@]12CC[C@H](O)C[C@H]1CC[C@@H]1[C@@H]2CC[C@]2(C)[C@@](O)(c3ccoc3)CC[C@]12O [rostafuroxin]

- Effect on Na+/Mg2+ exchanger [1]: inhibition
Compound: epidermal growth factor (EGF): mitogen

Further lines, the compound ahead of its results:

Compound: Nc1ncnc2c1nc(Cl)n2[C@@H]1O[C@@H]2COP(=O)(O)O[C@H]2[C@H]1O [8-Cl-cAMP]
- Effect on Na+/Mg2+ exchanger [1]: activation

Compound: Nc1nc2c(nc(Br)n2[C@@H]2O[C@@H]3COP(=O)(O)O[C@H]3[C@H]2O)c(=O)[nH]1 [8-bromo-cyclic GMP]
- Effect on Na+/Mg2+ exchanger [1]: activation

Compound: C[C@]12CCC(=O)C=C1CC[C@@H]1[C@@H]2[C@@H](O)C[C@]2(C=O)[C@@H](C(=O)CO)CC[C@@H]12 [Aldosterone]
- Effect on Na+/Mg2+ exchanger [1]: activation

Compound: N=C(N)NC(=O)c1nc(Cl)c(N)nc1N [Amiloride, 3,5-diamino-6-chloro-N-(diaminomethylidene)pyrazine-2-carbox-amide]
- Effect on Na+/Mg2+ exchanger [1]: Inhibition

Compound: CCCCC/C=C\C/C=C\C/C=C\C/C=C\CCCC(=O)O [Arachidonic acid, (5Z,8Z,11Z,14Z)-icosa-5,8,11,14-tetraenoic acid]
- Effect on Na+/Mg2+ exchanger [1]: activation

Compound: N/C(=N\C(=O)c1nc(Cl)c(N)nc1N)NCc1ccccc1 [Benzamil, 3,5-diamino-N-[(1E)-amino(benzylamino)methylidene]-6-chloropyrazine-2-carboxamide]
- Effect on Na+/Mg2+ exchanger [1]: Inhibition

Compound: COc1c(O)c2c(=O)cc(OC)c3c4c(OC)cc(=O)c5c(O)c(OC)c(CC(C)OC(=O)c6ccccc6)c(c(c1CC(C)OC(=O)Oc1ccc(O)cc1)c23)c54 (stereo not shown) [Calphostin C, 1-[3,10-dihydroxy-12-[2-(4-hydroxyphenoxy)-carbonyloxypropyl]-2,6,7,11-tetramethoxy-4,9-dioxoperylen-1-yl]propan-2-yl benzoate]
- Effect on Na+/Mg2+ exchanger [1]: inhibition

Compound: O=S(=O)([O-])c1cc(N=C=S)ccc1CCc1ccc(N=C=S)cc1S(=O)(=O)[O-].[Na+].[Na+] [DIDS, 4′,4′-diisothiocyanatodihydrostilbene-′,2′-disulfonic acid, disodium salt]
- Effect on Na+/Mg2+ exchanger [1]: Inhibition

Compound: C=C[C@@]1(C)CC(=O)[C@]2(O)[C@@]3(C)[C@@H](O)CCC(C)(C)[C@@H]3[C@H](O)[C@H](OC(C)=O)[C@@]2(C)O1 [Forskolin, [(3R,4aR,5S,6S,6aS,10S,10aR,10bS)-3-ethenyl-6,10,10b-trihydroxy-3,4a,7,7,10a-pentamethyl-1-oxo-5,6,6a,8,9,10-hexahydro-2H-benzo[f]chromen-5-yl] acetate]
- Effect on Na+/Mg2+ exchanger [1]: activation

Compound: O=c1c(-c2ccc(O)cc2)coc2cc(O)cc(O)c12 [Genistein, 5,7-dihydroxy-3-(4-hydroxyphenyl)chromen-4-one]
- Effect on Na+/Mg2+ exchanger [1]: inhibition

Compound: CN(C)CCCN1c2ccccc2CCc2ccccc21 [Imipramine, 10,11-Dihydro-N,N-dimethyl-5H-dibenz-[b,f]azepin-5-propanamin]
- Effect on proliferation of SLC41A1-overexpressing cells (in words) [2]: reduced the proliferation
- Mg2+ efflux ([3]; 250 μM, Mg2+-loaded (20 min, 10 mM) +tet HEK293-(SLC41A1) cells, without inhibitor 341±35): 129±32 μM/20 min
- Effect on SLC41A1-mediated Mg2+ efflux (in words) [3]: strongly decrease
- Effect on Na+/Mg2+ exchanger [1]: Inhibition

Compound: COc1ccc2c(c1)c(CC(=O)O)c(C)n2C(=O)c1ccc(Cl)cc1 [Indomethacin, 2-[1-(4-chlorobenzoyl)-5-methoxy-2-methylindol-3-yl]acetic acid]
- Effect on Na+/Mg2+ exchanger [1]: activation

Compound: CCN(CC)CC(=O)Nc1c(C)cccc1C [Lidocaine, 2-(diethylamino)-N-(2,6-dimethylphenyl)-acetamide]
- Effect on Na+/Mg2+ exchanger [1]: Inhibition

Compound: NC[C@H](O)c1ccc(O)c(O)c1 [Norepinephrine]
- Effect on Na+/Mg2+ exchanger [1]: activation

Compound: O=c1onc2cnc3ccccc3n12 [ODQ, 1H-[1,2,4]oxadiazolo[4,3-α]quinoxaline-1]
- Effect on Na+/Mg2+ exchanger [1]: inhibition

Compound: C[C@@H]1O[C@@H](O[C@H]2C[C@@H](O)[C@]3(CO)[C@H]4[C@H](O)C[C@]5(C)[C@@H](C6=CC(=O)OC6)CC[C@]5(O)[C@@H]4CC[C@]3(O)C2)[C@H](O)[C@H](O)[C@H]1O [Ouabain]
- Effect on Na+/Mg2+ exchanger [1]: inhibition

Compound: CCCC(=O)O[C@@H]1[C@@H](C)[C@@]2(O)[C@@H](C=C(CO)C[C@]3(O)C(=O)C(C)=C[C@@H]23)[C@@H]2C(C)(C)[C@]12OC(=O)CCC [Phorbol 12,13-dibutyrate]
- Effect on Na+/Mg2+ exchanger [1]: activation

Compound: Nc1ncnc2c1ncn2[C@@H]1O[C@@H]2COP(O)(=S)O[C@H]2[C@H]1O (stereo partly shown) [Rp-cAMP]
- Effect on Na+/Mg2+ exchanger [1]: inhibition

Compound: C[C@@H]1C[C@@]2(NC(=O)CS2)[C@]2(O)O[C@@H]3C[C@@]4(CO)[C@@H](CC[C@@H]5[C@@H]4CC[C@]4(C)[C@@H](C6=CC(=O)OC6)CC[C@]54O)C[C@H]3O[C@@H]2O1 [UNBS-1450]
- Effect on Na+/Mg2+ exchanger [1]: inhibition

Compound: C[C@]12CC[C@H](O)C[C@@]1(O)CC[C@@H]1[C@@H]2CC[C@]2(C)[C@@H](c3ccc(=O)oc3)C[C@H]3O[C@]132 [marinobufagenin]
- Effect on Na+/Mg2+ exchanger [1]: inhibition

Compound: CO[C@H]1C[C@H](O[C@H]2CC[C@@]3(C)[C@H](CC[C@@H]4[C@@H]3CC[C@]3(C)[C@@H](C5=CC(=O)OC5)[C@@H](OC(C)=O)C[C@]43O)C2)O[C@@H](C)[C@@H]1O [oleandrin]
- Effect on Na+/Mg2+ exchanger [1]: inhibition

Compound: Angiotensin II: hormone; vasoactive agent, vasoconstriction (via AT 1 receptor) (DRVYIHPF; Angiotensin-2; UniProt P01019 25-32, looked up)
- stimulation of SLC41A1-related Mg2+ efflux [3]: 19.5%
- Effect on SLC41A1-mediated Mg2+ efflux (in words) [3]: stimulated
- Effect on Na+/Mg2+ exchanger [1]: activation

Compound: Glucagon: hormone; modulator listed in Table 3
- Effect on Na+/Mg2+ exchanger [1]: activation

Compound: Insulin: hormone (via insulin receptor)
- Effect on SLC41A1-mediated Mg2+ efflux (in words) [3]: inhibitory effect
- Effect on Na+/Mg2+ exchanger [1]: inhibition

Source: patent publication US20130174289A1, “Na+/Mg2+ Exchanger” (FBN - Leibnitz-Institut fur Nutztierbiologie, priority 2010, published 2013)
